Test results: patent EP0973746B1, “SUBSTITUTED 3-CYANO QUINOLINES” (Wyeth Holdings Corporation, priority 1997, dated 1998)
Converted amounts (≈) assume the structure as drawn. Like-named read-outs stand apart in the source and are kept apart here.

Legend:
[1] = test system: T47D; experiment: Inhibition of cancer cell growth as measured by cell number, T47D; assay type: cell-based; conditions: Homo sapiens
[2] = molecular target: recombinant human MEK 1 (MAPKK) and recombinant human ERK2 (MAPK); experiment: Mitogen Activated Protein Kinase (MAPK) assay, two component coupled MEK 1 / ERK2; assay type: biochemical; conditions: separate entries for the same compound = evaluated more than one time;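 note: MEK 1-activated ERK2 phosphorylates MBP or Myc peptide with 33P-ATP, filter capture and scintillation counting, inhibitor preincubated with ERK2 30 min at 0 °C, inhibition relative to uninhibited control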
[3] = test system: CCL228; experiment: Inhibition of cancer cell growth as measured by cell number, CCL228; assay type: cell-based; conditions: Homo sapiens, read-out: IC50 CCL228
[4] = test system: MCF7; experiment: Inhibition of cancer cell growth as measured by cell number, MCF7; assay type: cell-based, human; conditions: Homo sapiens, MCF7, 48 h, Table 5;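 note: MCF7 was included as a line with little or no EGFR or HER2/neu expression, in contrast to the receptor-overexpressing lines of the panel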
Text: (§1) The cell lines were chosen since they overexpressed epidermal growth factor receptor (EGFR) (i.e. A431) or HER2/neu (SKBR3), or had little to no expression of the these receptors (SW620, LOX, MCF7).

[5] = test system: LNCAP; experiment: Inhibition of cancer cell growth as measured by cell number, LNCAP; assay type: cell-based; conditions: Homo sapiens
[6] = test system: LOX; experiment: Inhibition of cancer cell growth as measured by cell number, LOX; assay type: cell-based, human; conditions: Homo sapiens, LOX, 48 h, Table 6;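 note: LOX cells served as a line with low or absent EGFR and HER2/neu expression, in contrast to receptor-overexpressing lines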
Text: as §1

[7] = test system: SW620; experiment: Inhibition of cancer cell growth as measured by cell number, SW620; assay type: cell-based, human; conditions: Homo sapiens, SW-620, 48 h, Table 4;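 note: SW620 was included as a cell line with little or no EGFR or HER2/neu expression, in contrast to receptor-overexpressing lines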
Text: as §1

[8] = test system: SKBR3; experiment: Inhibition of cancer cell growth as measured by cell number, SKBR3; assay type: cell-based, human; conditions: Homo sapiens, Table 7;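 note: SK-BR-3 cells were selected as a line overexpressing HER2/neu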
Text: as §1

[9] = test system: LS174T; experiment: Inhibition of cancer cell growth as measured by cell number, LS174T; assay type: cell-based; conditions: Homo sapiens
[10] = test system: CX1; experiment: Inhibition of cancer cell growth as measured by cell number, CX1; assay type: cell-based; conditions: Homo sapiens, read-out: IC50 CX1
[11] = test system: CCRF-CFM; experiment: Inhibition of cancer cell growth as measured by cell number, CCRF-CFM; assay type: cell-based; conditions: Homo sapiens, read-out: IC50 CCRF-CFM
[12] = test system: LX1; experiment: Inhibition of cancer cell growth as measured by cell number, LX1; assay type: cell-based; conditions: Homo sapiens, read-out: IC50 LX1
[13] = test system: PC3; experiment: Inhibition of cancer cell growth as measured by cell number, PC3; assay type: cell-based; conditions: Homo sapiens, read-out: IC50 PC3
[14] = test system: SW948; experiment: Inhibition of cancer cell growth as measured by cell number, SW948; assay type: cell-based; conditions: Homo sapiens, read-out: IC50 SW948
[15] = test system: A549; experiment: Inhibition of cancer cell growth as measured by cell number, A549; assay type: cell-based; conditions: Homo sapiens, read-out: IC50 A549
[16] = test system: NEC; experiment: Inhibition of cancer cell growth as measured by cell number, NEC; assay type: cell-based; conditions: Homo sapiens, read-out: IC50 NEC
[17] = test system: COLO205; experiment: Inhibition of cancer cell growth as measured by cell number, COLO205; assay type: cell-based; conditions: Homo sapiens, read-out: IC50 COLO205
[18] = test system: A2780DDP; experiment: Inhibition of cancer cell growth as measured by cell number, A2780DDP; assay type: cell-based; conditions: Homo sapiens, read-out: IC50 A2780DDP
[19] = test system: CACO2; experiment: Inhibition of cancer cell growth as measured by cell number, CACO2; assay type: cell-based; conditions: Homo sapiens, read-out: IC50 CACO2
[20] = test system: HL60; experiment: Inhibition of cancer cell growth as measured by cell number, HL60; assay type: cell-based; conditions: Homo sapiens, read-out: IC50 HL60
[21] = test system: MIP; experiment: Inhibition of cancer cell growth as measured by cell number, MIP; assay type: cell-based; conditions: Homo sapiens; cell number, Sulforhodamine B, 48 hours exposure; Table 4; read-out: IC50 MIP
[22] = test system: HTB161; experiment: Inhibition of cancer cell growth as measured by cell number, HTB161; assay type: cell-based; conditions: Homo sapiens, read-out: IC50 HTB161
[23] = molecular target: T1, Kinase insert Domain containing Receptor (KDR: the catalytic domain of the VEGF receptor) (Homo sapiens, UniProt P35968); experiment: Inhibition of Kinase insert Domain containing Receptor (KDR); assay type: biochemical; conditions: pH 7.2; radioactive format; read-out: KDR IC50 (converted);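 note: KDR phosphorylating a Glu:Tyr 4:1 copolymer with P32- or P33-labelled ATP, Mg++ and vanadate, read as acid-insoluble radiolabel, compared with compound-free reaction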
T1 construct: KDR: the catalytic domain of the VEGF receptor
Experimental: In this standard pharmacological test procedure, KDR protein is mixed, in the presence or absence of a inhibitor compound, with a substrate peptide to be phosphorylated (a copolymer of glutamic acid and tyrosine, E:Y :: 4:1) and other cofactors such as Mg^++ and sodium vanadate (a protein tyrosine phosphatase inhibitor) in an appropriate buffer to maintain pH (7.2). ATP and a radioactive tracer (either P^32-or P^33- labeled ATP) is then add to initiate phosphorylation. After incubation, the radioactive phosphate associated with the acid-insoluble fraction of the assay mixture is then quantified as reflection of substrate phosphorylation.

[24] = test system: A431; experiment: Inhibition of cancer cell growth as measured by cell number, A431; assay type: cell-based, human; conditions: Homo sapiens, A-431, 48 h, Table 6;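 note: human A431 line, picked because it overexpresses epidermal growth factor receptor (EGFR)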
Text: as §1

[25] = test system: A27805; experiment: Inhibition of cancer cell growth as measured by cell number, A27805; assay type: cell-based; conditions: Homo sapiens, read-out: IC50 A27805
[26] = test system: B7474; experiment: Inhibition of cancer cell growth as measured by cell number, B7474; assay type: cell-based; conditions: Homo sapiens, read-out: IC50 B7474
[27] = test system: DU145; experiment: Inhibition of cancer cell growth as measured by cell number, DU145; assay type: cell-based; conditions: Homo sapiens, read-out: IC50 DU145
[28] = test system: HCT15; experiment: Inhibition of cancer cell growth as measured by cell number, HCT15; assay type: cell-based; conditions: Homo sapiens, read-out: IC50 HCT15
[29] = molecular target: epidermal growth factor receptor kinase (Homo sapiens, UniProt P00533); experiment: biochemical
[30] = read-out: IC50 MCF7, cell number, Sulforhodamine B, 48 hours exposure
[31] = read-out: IC50 LOX, cell number, Sulforhodamine B, 48 hours exposure
[32] = read-out: IC50 SW620, cell number, Sulforhodamine B, 48 hours exposure
[33] = SK-BR-3, 48 h, read-out: IC50 SKBR3, cell number, Sulforhodamine B, 48 hours exposure
[34] = cell number, Sulforhodamine B, 48 hours exposure, Table 4
[35] = cell number, Sulforhodamine B, 48 hours exposure, Table 6

T1 sequence (P35968 834-1162 limits assumed): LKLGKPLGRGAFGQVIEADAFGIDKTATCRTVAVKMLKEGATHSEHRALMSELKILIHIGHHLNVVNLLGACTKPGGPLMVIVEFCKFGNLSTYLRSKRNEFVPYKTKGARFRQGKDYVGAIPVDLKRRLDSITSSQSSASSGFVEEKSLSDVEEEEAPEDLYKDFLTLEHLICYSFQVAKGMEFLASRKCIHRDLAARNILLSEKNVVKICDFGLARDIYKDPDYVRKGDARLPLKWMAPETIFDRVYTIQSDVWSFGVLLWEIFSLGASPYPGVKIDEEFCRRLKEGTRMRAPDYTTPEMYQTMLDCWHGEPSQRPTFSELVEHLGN
Chain of epidermal growth factor receptor kinase (P00533 25-1210): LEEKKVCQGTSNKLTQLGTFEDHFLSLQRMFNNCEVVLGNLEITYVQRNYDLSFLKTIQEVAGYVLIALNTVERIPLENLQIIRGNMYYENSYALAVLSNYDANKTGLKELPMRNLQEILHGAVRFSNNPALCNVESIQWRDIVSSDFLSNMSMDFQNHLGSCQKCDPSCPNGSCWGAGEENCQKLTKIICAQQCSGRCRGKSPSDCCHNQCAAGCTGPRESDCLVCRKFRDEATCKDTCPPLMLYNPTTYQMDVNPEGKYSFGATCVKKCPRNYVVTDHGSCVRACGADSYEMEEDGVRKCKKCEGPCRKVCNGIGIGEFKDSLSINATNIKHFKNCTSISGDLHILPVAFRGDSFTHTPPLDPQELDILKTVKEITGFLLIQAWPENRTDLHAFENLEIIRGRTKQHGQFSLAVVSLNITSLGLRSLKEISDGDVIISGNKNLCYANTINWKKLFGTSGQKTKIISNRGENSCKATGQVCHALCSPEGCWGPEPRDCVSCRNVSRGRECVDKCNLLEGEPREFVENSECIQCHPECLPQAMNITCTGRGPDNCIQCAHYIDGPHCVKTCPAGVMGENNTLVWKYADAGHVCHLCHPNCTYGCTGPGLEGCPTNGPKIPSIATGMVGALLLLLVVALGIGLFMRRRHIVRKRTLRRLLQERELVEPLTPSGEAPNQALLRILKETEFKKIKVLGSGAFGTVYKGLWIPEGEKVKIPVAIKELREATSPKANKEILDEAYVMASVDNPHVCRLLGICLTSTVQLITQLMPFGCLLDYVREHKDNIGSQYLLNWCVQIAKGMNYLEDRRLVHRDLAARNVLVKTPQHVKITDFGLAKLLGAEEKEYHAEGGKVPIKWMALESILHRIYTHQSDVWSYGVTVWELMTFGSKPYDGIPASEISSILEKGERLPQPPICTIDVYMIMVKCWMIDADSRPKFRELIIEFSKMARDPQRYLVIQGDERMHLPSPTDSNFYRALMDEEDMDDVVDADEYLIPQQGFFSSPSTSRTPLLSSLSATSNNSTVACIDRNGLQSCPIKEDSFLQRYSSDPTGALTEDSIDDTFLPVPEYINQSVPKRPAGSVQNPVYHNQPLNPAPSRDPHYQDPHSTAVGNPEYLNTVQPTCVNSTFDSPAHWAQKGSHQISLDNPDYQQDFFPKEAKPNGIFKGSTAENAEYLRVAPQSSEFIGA

With COc1ccc(Nc2c(C#N)cnc3cc(OC)c(OC)cc23)cc1OC [Example 43, 4-[(3,4-Dimethoxyphenyl)amino]-6,7-dimethoxy-3-quinolinecarbonitrile] the IC50 ([1]; 48 h, read-out: IC50 T47D) was 4.5 µg/mL (≈ 12.3 µM), the IC50 [2] was 30 µM and the IC50 ([3]; 48 h) was 2.56 µg/mL (≈ 7 µM). It also gave an IC50 [4, 30] of 5.83 µg/mL (≈ 16 µM), an IC50 ([5]; 48 h, read-out: IC50 LNCAP) of 4.53 µg/mL (≈ 12.4 µM) and an IC50 [6, 31] of 2.86 µg/mL (≈ 7.83 µM). The IC50 [7, 32] was 4.33 µg/mL (≈ 11.8 µM), the IC50 [8, 33] was 5.19 µg/mL (≈ 14.2 µM) and the IC50 ([9]; 48 h, read-out: IC50 LS174T) was 4.22 µg/mL (≈ 11.6 µM). It also gave an IC50 ([10]; CX-1, 48 h) of 3.43 µg/mL (≈ 9.38 µM).

Work on COc1cc2ncc(C#N)c(Nc3cccc(CO)c3)c2cc1OC [Example 48, 4-[(3-(hydroxymethyl)phenyl)amino]-6,7-dimethoxy-3-quinolinecarbonitrile] yielded an IC50 ([1]; 48 h, read-out: IC50 T47D) greater than 100 µg/mL, an IC50 ([11]; 48 h) greater than 100 µg/mL and an IC50 ([3]; 48 h) greater than 100 µg/mL. For the same compound, the IC50 ([12]; LX-1, 48 h) was greater than 100 µg/mL, the IC50 ([13]; PC-3, 48 h) was greater than 100 µg/mL and the IC50 ([14]; SW948, 48 h) was greater than 100 µg/mL. It also gave an IC50 [4, 30] of 79.3 µg/mL (≈ 236 µM), an IC50 ([15]; A549, 48 h) greater than 100 µg/mL and an IC50 ([5]; 48 h, read-out: IC50 LNCAP) of 40.6 µg/mL (≈ 121 µM). The IC50 [6, 31] was 47 µg/mL (≈ 140 µM), the IC50 [7, 32] was greater than 100 µg/mL and the IC50 [8, 33] was 64.5 µg/mL (≈ 192 µM). The IC50 ([16]; 48 h) was greater than 100 µg/mL and the IC50 ([10]; CX-1, 48 h) was 59.2 µg/mL (≈ 177 µM).

In the case of COc1cc2ncc(C#N)c(Oc3cccc(Br)c3)c2cc1OC [Example 49, 4-(3-Bromophenoxy)-6,7-dimethoxy-3-quinolinecarbonitrile], the IC50 ([1]; 48 h, read-out: IC50 T47D) is reported as 71.2 µg/mL (≈ 185 µM), the IC50 [2] is reported as greater than 100 µM and the IC50 ([11]; 48 h) is reported as greater than 100 µg/mL. For the same compound, the IC50 ([17]; COLO 205, 48 h) was 88 µg/mL (≈ 228 µM), the IC50 ([3]; 48 h) was 99 µg/mL (≈ 257 µM) and the IC50 ([12]; LX-1, 48 h) was greater than 100 µg/mL. For the same compound, the IC50 ([18]; 48 h) was 51.8 µg/mL (≈ 135 µM), the IC50 ([13]; PC-3, 48 h) was greater than 100 µg/mL and the IC50 ([14]; SW948, 48 h) was greater than 100 µg/mL. For the same compound, the IC50 [4, 30] was 57.5 µg/mL (≈ 149 µM), the IC50 ([15]; A549, 48 h) was greater than 100 µg/mL and the IC50 ([19]; Caco-2, 48 h) was 42.1 µg/mL (≈ 109 µM). For the same compound, the IC50 ([20]; HL-60, 48 h) was 48.4 µg/mL (≈ 126 µM), the IC50 ([5]; 48 h, read-out: IC50 LNCAP) was 52.4 µg/mL (≈ 136 µM) and the IC50 [6, 31] was 55.1 µg/mL (≈ 143 µM). The IC50 [21] was greater than 100 µg/mL, the IC50 ([22]; 48 h) was 70.6 µg/mL (≈ 183 µM) and the IC50 [7, 32] was greater than 100 µg/mL. The IC50 [23] was greater than 77.9 µM, the IC50 ([24]; read-out: IC50 A431, cell number, Sulforhodamine B, 48 hours exposure) was 100 µg/mL (≈ 260 µM) and the IC50 [8, 33] was 74.6 µg/mL (≈ 194 µM). It also gave an IC50 ([9]; 48 h, read-out: IC50 LS174T) greater than 100 µg/mL, an IC50 ([25]; 48 h) of 34.8 µg/mL (≈ 90.2 µM) and an IC50 ([26]; 48 h) of 87.1 µg/mL (≈ 226 µM). It also gave an IC50 ([16]; 48 h) of 85.3 µg/mL (≈ 221 µM), an IC50 ([27]; DU-145, 48 h) of 79.8 µg/mL (≈ 207 µM) and an IC50 ([10]; CX-1, 48 h) of 98.4 µg/mL (≈ 256 µM). It also gave an IC50 ([28]; HCT-15, 48 h) of 97.4 µg/mL (≈ 253 µM).

Work on COc1cc2ncc(C#N)c(Sc3ccc(Br)cc3)c2cc1OC [Example 50, 4-[(4-Bromophenyl)sulfanyl]-6,7-dimethoxy-3-quinolinecarbonitrile] yielded an IC50 ([1]; cell number, Sulforhodamine B, 48 hours exposure, Table 6, read-out: IC50 T47D) of 5.42 µg/mL (≈ 13.5 µM), an IC50 [2] greater than 100 µM and an IC50 [29] of 5 µM. The IC50 ([11]; cell number, Sulforhodamine B, 48 hours exposure, Table 7) was 4.6 µg/mL (≈ 11.5 µM), the IC50 ([17]; COLO 205, cell number, Sulforhodamine B, 48 hours exposure, Table 4) was 28.5 µg/mL (≈ 70.9 µM) and the IC50 ([3]; cell number, Sulforhodamine B, 48 hours exposure, Table 5) was 6.79 µg/mL (≈ 16.9 µM). It also gave an IC50 ([12]; LX-1, cell number, Sulforhodamine B, 48 hours exposure, Table 6) of 7.21 µg/mL (≈ 18 µM), an IC50 [18, 34] of 6.42 µg/mL (≈ 16 µM) and an IC50 ([13]; PC-3, cell number, Sulforhodamine B, 48 hours exposure, Table 7) of 8.53 µg/mL (≈ 21.2 µM). The IC50 ([14]; SW948, cell number, Sulforhodamine B, 48 hours exposure, Table 5) was 17.9 µg/mL (≈ 44.6 µM), the IC50 ([4]; cell number, Sulforhodamine B, 48 hours exposure, read-out: IC50 MCF7) was 7.14 µg/mL (≈ 17.8 µM) and the IC50 ([15]; A549, cell number, Sulforhodamine B, 48 hours exposure, Table 6) was 6.82 µg/mL (≈ 17 µM). For the same compound, the IC50 ([19]; Caco-2, cell number, Sulforhodamine B, 48 hours exposure, Table 5) was 4.89 µg/mL (≈ 12.2 µM), the IC50 ([20]; HL-60, cell number, Sulforhodamine B, 48 hours exposure, Table 7) was 4.72 µg/mL (≈ 11.8 µM) and the IC50 ([5]; cell number, Sulforhodamine B, 48 hours exposure, Table 7, read-out: IC50 LNCAP) was 5.34 µg/mL (≈ 13.3 µM). The IC50 ([6]; cell number, Sulforhodamine B, 48 hours exposure, read-out: IC50 LOX) was 4.7 µg/mL (≈ 11.7 µM), the IC50 [21] was 7.35 µg/mL (≈ 18.3 µM) and the IC50 [22, 34] was 4.46 µg/mL (≈ 11.1 µM). It also gave an IC50 ([7]; cell number, Sulforhodamine B, 48 hours exposure, read-out: IC50 SW620) of 32.9 µg/mL (≈ 81.9 µM), an IC50 ([24]; cell number, Sulforhodamine B, 48 hours exposure, read-out: IC50 A431) of 7.35 µg/mL (≈ 18.3 µM) and an IC50 ([8]; SK-BR-3, cell number, Sulforhodamine B, 48 hours exposure, read-out: IC50 SKBR3) of 6.83 µg/mL (≈ 17 µM). The IC50 ([9]; cell number, Sulforhodamine B, 48 hours exposure, Table 5, read-out: IC50 LS174T) was 7.68 µg/mL (≈ 19.1 µM), the IC50 [25, 34] was 4.68 µg/mL (≈ 11.7 µM) and the IC50 [26, 35] was 7.17 µg/mL (≈ 17.9 µM). The IC50 [16, 35] was 6.89 µg/mL (≈ 17.2 µM), the IC50 ([27]; DU-145, cell number, Sulforhodamine B, 48 hours exposure, Table 7) was 5.6 µg/mL (≈ 14 µM) and the IC50 ([10]; CX-1, cell number, Sulforhodamine B, 48 hours exposure, Table 4) was 8.72 µg/mL (≈ 21.7 µM). It also gave an IC50 ([28]; HCT-15, cell number, Sulforhodamine B, 48 hours exposure, Table 5) of 8.54 µg/mL (≈ 21.3 µM).
